Assay results reported in US20070122422A1, “Sodium-independent small neutral amino acid transporter transporting L- and D- amino acids” (Japan Science and Technology Corporation, priority 2000, published 2007).

Experiments:
Type in all cases: cell-based
[1] = molecular target: T1, intracellular substrate-binding site of asc-1 of mouse (Mus musculus, UniProt P63115); test: Release of injected 14C-amino acid from oocytes co-expressing asc-1 and 4F2hc on extracellular alanine; settings: alanine 100 μM added to Na+-free uptake solution
T1 construct: expressed in transfected cells; host or cells: Xenopus oocytes injected with cRNA
T1 sequence (P63115 1-530): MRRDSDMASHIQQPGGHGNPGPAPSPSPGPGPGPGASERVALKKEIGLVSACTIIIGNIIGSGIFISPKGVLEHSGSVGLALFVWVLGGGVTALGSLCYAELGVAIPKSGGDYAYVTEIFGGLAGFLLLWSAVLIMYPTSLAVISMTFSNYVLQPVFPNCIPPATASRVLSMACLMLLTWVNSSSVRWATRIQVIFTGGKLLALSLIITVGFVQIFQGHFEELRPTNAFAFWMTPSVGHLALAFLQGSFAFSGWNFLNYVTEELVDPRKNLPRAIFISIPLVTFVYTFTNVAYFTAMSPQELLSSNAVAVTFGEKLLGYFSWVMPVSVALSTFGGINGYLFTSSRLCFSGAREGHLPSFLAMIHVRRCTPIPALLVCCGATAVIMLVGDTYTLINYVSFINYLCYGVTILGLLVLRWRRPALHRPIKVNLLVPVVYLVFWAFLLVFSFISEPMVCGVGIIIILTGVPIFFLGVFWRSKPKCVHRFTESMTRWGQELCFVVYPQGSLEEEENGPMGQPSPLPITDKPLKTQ
T1 sequence (P10852 1-526 partner): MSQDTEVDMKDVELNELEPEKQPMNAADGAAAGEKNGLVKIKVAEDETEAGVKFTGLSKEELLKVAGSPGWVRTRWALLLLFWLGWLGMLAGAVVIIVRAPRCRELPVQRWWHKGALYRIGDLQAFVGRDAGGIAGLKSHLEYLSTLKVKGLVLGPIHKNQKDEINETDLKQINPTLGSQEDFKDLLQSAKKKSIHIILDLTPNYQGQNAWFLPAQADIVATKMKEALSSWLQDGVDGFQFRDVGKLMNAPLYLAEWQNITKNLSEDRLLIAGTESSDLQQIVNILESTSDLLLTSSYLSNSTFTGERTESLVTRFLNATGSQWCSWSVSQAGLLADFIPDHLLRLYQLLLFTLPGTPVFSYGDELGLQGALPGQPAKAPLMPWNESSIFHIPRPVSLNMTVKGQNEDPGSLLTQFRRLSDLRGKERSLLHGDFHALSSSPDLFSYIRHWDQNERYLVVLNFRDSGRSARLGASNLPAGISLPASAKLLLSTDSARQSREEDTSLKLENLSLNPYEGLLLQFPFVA
Method: In oocytes into which cRNA of asc-1 gene and cRNA of 4F2hc gene of mouse were injected together, release of preloaded ^14C-amino acid mediated by asc-1 was checked whereby the substrate selectivity of intracellular substrate-binding site of asc-1 was checked.
^14C-Amino acid (˜3nCi) of 100 μM in an amount of 100 nl was injected into the oocytes into which both asc-1 gene cRNA and 4F2hc gene cRNA of mouse were injected together, washed with an ice-cooled Na^+-free uptake solution containing no alanine and transferred to a Na^+-free uptake solution to which alanine (100 μM) was added or not added at room temperature (18° C.-22° C.) and the amount of ^14C-amino acid released outside the cells was measured.
Black bars in FIG. 21 show the case where alanine was added to a Na^+-free uptake solution while bars with oblique lines show the case where alanine was not added to a Na^+-free uptake solution.

[2] = molecular target: T2, asc-1 of mouse (co-expressed with 4F2hc of mouse) (Mus musculus, UniProt P63115); test: Michaelis-Menten kinetic test of substrate incorporation by Xenopus oocytes co-expressing asc-1 and 4F2hc; settings: ratio to the Vmax value for alanine (defined as 1.00)
T2 construct: expressed in transfected cells; host or cells: Xenopus oocytes injected with cRNA
T2 sequence (P63115 1-530): T1 sequence (P63115 1-530)
T2 sequence (P10852 1-526 partner): T1 sequence (P10852 1-526 partner)
Method: (§1) Into oocytes were injected 12 ng of asc-1 gene cRNA of mouse, 13 ng of 4F2hc gene cRNA of mouse or 12 ng asc-1 gene cRNA of mouse/13 ng of 4F2hc gene cRNA of mouse to express followed by incubating for 3 days. […] Thus, the oocytes were allowed to stand for 30 minutes in a Na^+-free uptake solution [100 mM choline chloride, 2 mM potassium chloride, 1.8 mM calcium chloride, 1 mM magnesium chloride, 5 mM HEPES; pH 7.4] containing ^14C-alanine (100 μM) as a substrate and the rate of the substrate incorporated into the cells was measured by way of counting the radioactivity incorporated thereinto.
A Michaelis-Menten kinetic test was carried out for a sodium-independent small neutral amino acid transporter asc-1 which transports L- and D-amino acids. By checking the changes in the rate of incorporation of alanine due to the difference in concentration of the alanine substrate, the Michaelis-Menten kinetic test of asc-1 was carried out.
An experiment for the incorporation of alanine was carried out according to the method mentioned in the above Example 2(1) using the oocytes into which both asc-1 gene cRNA of mouse and 4F2hc gene cRNA of mouse were injected.
With regard to amino acids other than alanine which were used as substrates, a Michaelis-Menten kinetic was carried out as well in the same manner whereupon Km values and Vmax values were calculated. Each Vmax value in Table 1 was shown in terms of the ratio when the Vmax value of alanine was defined as 1.00.

[3] = molecular target: T2, asc-1 of mouse (co-expressed with 4F2hc of mouse); test: Inhibition of 14C-alanine incorporation by added amino acids and analogs in oocytes co-expressing asc-1 and 4F2hc; settings: 14C-alanine 50 μM; 5 mM non-labeled compound; Na+-free uptake solution
Method: as §1
In an experiment of incorporation of alanine by oocytes into which both asc-1 gene cRNA of mouse and 4F2hc gene cRNA of mouse were injected, influence of addition of various amino acid and analogs thereof was investigated.
In an experiment of incorporation of alanine, a method according to that mentioned in the above Example 2(1) was carried out using oocytes into which both asc-1 gene cRNA of mouse and 4F2hc gene cRNA of mouse were injected. Here, a Na^+-free uptake solution was used and incorporation of ^14C-alanine (50 μM) was measured in the presence and absence of 5 mM of various compounds (non-labeled).

[4] = molecular target: T3, human asc-1 (co-expressed with human 4F2hc) (Homo sapiens, UniProt Q9NS82); test: Incorporation of 14C-alanine by oocytes co-expressing human asc-1 and human 4F2hc; settings: oocytes where both human asc-1 and 4F2hc were expressed together
T3 construct: expressed in transfected cells
T3 sequence (Q9NS82 1-523): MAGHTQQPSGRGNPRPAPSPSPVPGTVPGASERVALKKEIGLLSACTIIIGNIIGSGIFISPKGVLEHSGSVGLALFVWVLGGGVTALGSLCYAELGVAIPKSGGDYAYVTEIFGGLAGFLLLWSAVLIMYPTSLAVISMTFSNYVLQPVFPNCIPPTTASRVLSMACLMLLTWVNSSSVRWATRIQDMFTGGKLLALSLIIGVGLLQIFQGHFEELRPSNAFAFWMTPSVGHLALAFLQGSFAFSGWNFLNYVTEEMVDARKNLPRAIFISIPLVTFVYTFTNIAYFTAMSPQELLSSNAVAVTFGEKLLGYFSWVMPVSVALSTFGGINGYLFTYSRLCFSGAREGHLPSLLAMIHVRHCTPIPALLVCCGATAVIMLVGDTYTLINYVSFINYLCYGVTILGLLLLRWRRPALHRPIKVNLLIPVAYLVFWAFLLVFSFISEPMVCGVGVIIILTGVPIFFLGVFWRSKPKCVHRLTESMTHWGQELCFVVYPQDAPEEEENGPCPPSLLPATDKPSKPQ
Method: Comparison was made between incorporation of ^14C-alanine in the case where human asc-1 gene cRNA was solely expressed in oocytes with that in the case where both human asc-1 gene cRNA and human 4F2hc gene cRNA were expressed in oocytes. Expression was carried out by injection of 12.5 ng of human asc-1 gene cRNA, 12.5 ng of human 4F2hc gene cRNA or 12.5 ng of human asc-1 gene cRNA/12.5 ng of human 4F2hc gene cRNA into oocytes and incubation was conducted for three days. With regard to the oocytes into which human asc-1 gene cRNA, 4F2hc gene cRNA or human asc-1 gene cRNA/4F2hc gene cRNA was injected, an experiment for incorporation of substrate was carried out according to Example 2(1) using alanine as a substrate.

Row | Compound | release of injected 14C-labeled amino acid by extracellular alanine [1] | Vmax [2] | inhibition of incorporation of 14C-alanine mediated by asc-1 [3] | incorporation of alanine [4]
1 | N[C@@H](CO)C(=O)O [L-Serine] | increase in release | 1.02 | particularly strongly inhibited | –
2 | C[C@H](N)C(=O)O [L-Alanine] | increase in release | (1.00) | particularly strongly inhibited | big incorporation
